Experiment: Cleavage rate was reported
Assay type: ADME

| K obs | SMILES |
| --- | --- |
| 2.01 min⁻¹ | O=c1ccccn1C1O[C@H](CO)[C@@H](O)[C@H]1O (stereo partly drawn) |
| 1.17 min⁻¹ | O=c1ccn([C@@H]2O[C@H](CO)[C@@H](O)[C@H]2O)c(=O)[nH]1 [URIDINE] |
| 0.095 min⁻¹ | O=c1ccn(C2O[C@H](CO)[C@@H](O)[C@H]2O)cc1 (stereo partly drawn) |
